Measurements published in patent EP0818464B1, “Methylsulfomycin l, a process for its production and its use” (HOECHST AKTIENGESELLSCHAFT, priority 1996, dated 1998).

Assays:
Assay in all cases: MIC by agar dilution method
Type in all cases: cell-based
S. aureus 3066 = S. aureus 3066 (resistant to methicillin)
Source text: (§1) The minimum inhibitory concentration (MIC) against different test strains, determined by agar dilution method in the known manner, are given in Table 2.

Escherichia coli 2231 = tested on: Escherichia coli 2231
Source text: as §1

S. epi. 109 = tested on: S. epi. 109
Source text: as §1

S. epi. 823 (T^R) = details: Teicoplanin resistant
Source text: as §1

Ent. faecalis 4045H = tested on: Ent. faecalis 4045H
Source text: as §1

S. aureus Chantot 31153 = tested on: S. aureus Chantot 31153
Source text: as §1

[1] = tested on: Ent. faecium P-2 (V^R,T^R); details: Vancomycin resistant, Teicoplanin resistant
Source text: as §1

Ent. equinus (V^R,T^R) = details: Vancomycin resistant, Teicoplanin resistant
Source text: as §1

S. aureus E-88 = tested on: S. aureus E-88
Source text: as §1

S. epi. 32965 = tested on: S. epi. 32965
Source text: as §1

S. aureus Wein 12 = tested on: S. aureus Wein 12
Source text: as §1

[2] = tested on: Ent. faecium P-1 (V^R,T^R); details: Vancomycin resistant, Teicoplanin resistant
Source text: as §1

[3] = tested on: Enterococcus faecalis ATCC 29212
Source text: as §1

S. epi. 825 (T^S) = details: Teicoplanin sensitive
Source text: as §1

S. haemo. 712 (T^R) = details: Teicoplanin resistant
Source text: as §1

[4] = tested on: Ent. faecium R-2 (V^R,T^R); details: Vancomycin resistant, Teicoplanin resistant
Source text: as §1

[5] = tested on: Staphylococcus aureus 209P
Source text: as §1

S. aureus 20240 = tested on: S. aureus 20240
Source text: as §1

[6] = tested on: Ent faecalis durans 4931 H
Source text: as §1

S. epi. 5747 IIW = tested on: S. epi. 5747 IIW
Source text: as §1

S. epi. 8 Schah = tested on: S. epi. 8 Schah
Source text: as §1

S. aureus Brussels 4115 = tested on: S. aureus Brussels 4115
Source text: as §1

S. aureus Brussels 810 = tested on: S. aureus Brussels 810
Source text: as §1

Ent. hirae 55 = tested on: Ent. hirae 55
Source text: as §1

Ent. faecium D-65 = tested on: Ent. faecium D-65
Source text: as §1

Ent. faecalis D-7F = tested on: Ent. faecalis D-7F
Source text: as §1

S. aureus E 710 = tested on: S. aureus E 710
Source text: as §1

S. aureus Wein 11 = tested on: S. aureus Wein 11
Source text: as §1

S. aureus E 712 = tested on: S. aureus E 712
Source text: as §1

[7] = tested on: Ent. faecium R-1 (V^R,T^R); details: Vancomycin resistant, Teicoplanin resistant
Source text: as §1

S. epi 6026 = tested on: S. epi 6026
Source text: as §1

S. haemo. 712 (T^S) = details: Teicoplanin sensitive
Source text: as §1

S. aureus 20424 = tested on: S. aureus 20424
Source text: as §1

methylsulfomycin I
MIC (S. aureus 3066): 0.125 µg/mL | MIC (Escherichia coli 2231): > 100 µg/mL | MIC (S. epi. 109): 0.125 µg/mL | MIC (S. epi. 823 (T^R)): 0.125 µg/mL | MIC (Ent. faecalis 4045H): 0.125 µg/mL | MIC (S. aureus Chantot 31153): 0.125 µg/mL | MIC [1]: 0.125 µg/mL | MIC (Ent. equinus (V^R,T^R)): 0.125 µg/mL | MIC (S. aureus E-88): 0.125 µg/mL | MIC (S. epi. 32965): 0.125 µg/mL | MIC (S. aureus Wein 12): 0.125 µg/mL | MIC [2]: 0.125 µg/mL | MIC [3]: 0.125 µg/mL | MIC (S. epi. 825 (T^S)): 0.125 µg/mL | MIC (S. haemo. 712 (T^R)): 0.125 µg/mL | MIC [4]: 0.125 µg/mL | MIC [5]: 0.06 µg/mL | MIC (S. aureus 20240): 0.125 µg/mL | MIC [6]: 0.125 µg/mL | MIC (S. epi. 5747 IIW): 0.125 µg/mL | MIC (S. epi. 8 Schah): 0.125 µg/mL | MIC (S. aureus Brussels 4115): 0.125 µg/mL | MIC (S. aureus Brussels 810): 0.125 µg/mL | MIC (Ent. hirae 55): 0.125 µg/mL | MIC (Ent. faecium D-65): 0.125 µg/mL | MIC (Ent. faecalis D-7F): 0.125 µg/mL | MIC (S. aureus E 710): 0.125 µg/mL | MIC (S. aureus Wein 11): 0.125 µg/mL | MIC (S. aureus E 712): 0.125 µg/mL | MIC [7]: 0.125 µg/mL | MIC (S. epi 6026): 0.125 µg/mL | MIC (S. haemo. 712 (T^S)): 0.125 µg/mL | MIC (S. aureus 20424): 0.125 µg/mL
